Experiments:
Assay in all cases: MIC, broth microdilution (CLSI), substance alone or ATB combined with compound at 4 or 8 μg/mL
[1] = system: ECL P99; type: cell-based, E. cloacae; conditions: ECL P99
How it was run: (§1)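 Each strain received 5·10^5 CFU/mL of log-phase cells in ca-MHB over DMSO-spotted compound or compound-antibiotic combinations. After 16-20 h at 35° C, growth was scored visually.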

[2] = system: PAE 105250; type: cell-based, P. aeruginosa; conditions: PAE 105250
How it was run: as §1

[3] = system: PAE UFR48; type: cell-based, P. aeruginosa; conditions: PAE UFR48
How it was run: as §1

[4] = system: PAE UFR90; type: cell-based, P. aeruginosa; conditions: PAE UFR90
How it was run: as §1

[5] = system: SAU 29213; type: cell-based, S. aureus; conditions: SAU 29213
How it was run: as §1

[6] = system: SPN 49619; type: cell-based, S. pneumoniae; conditions: SPN 49619
How it was run: as §1

## C[C@@H](O)[C@H]1C(=O)N2C(C(=O)O)=C(SCCN=CN)C[C@H]12 [IMI]
[1]; with Example 11 at 8 μg/ml
  MIC ATB combined with Example 11 @8 μg/ml: <0.031 mg/L
[1]; with Example 12 at 8 μg/ml
  MIC ATB combined with Example 12 @8 μg/ml: <0.031 mg/L
[1]; with Example 13 at 8 μg/ml
  MIC ATB combined with Example 13 @8 μg/ml: 0.063 mg/L
[1]; with Example 14 at 8 μg/ml
  MIC ATB combined with Example 14 @8 μg/ml: <0.031 mg/L
[1]; with Example 15 at 4 μg/ml
  MIC ATB combined with Example 15 @4 μgml: <0.031 mg/L
[1]; with Example 16 at 4 μg/ml
  MIC ATB combined with Example 16 @4 μg/ml: <0.031 mg/L
[2]; antibiotic alone
  MIC ATB alone: 1 mg/L
[2]; with Example 1 @8 μg/ml
  MIC ATB combined with Example 1 @8 μg/ml: <=0.031 μg/mL
[2]; with Example 1 at 8 μg/ml
  MIC ATB combined with Example 1 @8 μg/ml: <=0.031 μg/mL
[2]; with Example 7 at 8 μg/ml
  MIC ATB combined with Example 7 @8 μgml: 16 mg/L
[2]; with Example 9 @4 μg/ml
  MIC ATB combined with Example 9 @4 μg/ml: 1 mg/L
[2]; with Example 9 at 4 μg/ml
  MIC ATB combined with Example 9 @4 μg/ml: 1 mg/L
[2]; with Example 11 at 8 μg/ml
  MIC ATB combined with Example 11 @8 μg/ml: 1 mg/L
[2]; with Example 12 at 8 μg/ml
  MIC ATB combined with Example 12 @8 μg/ml: 2 mg/L
[2]; with Example 13 at 8 μg/ml
  MIC ATB combined with Example 13 @8 μg/ml: 8 mg/L
[2]; with Example 14 at 8 μg/ml
  MIC ATB combined with Example 14 @8 μg/ml: 2 mg/L
[2]; with Example 15 at 4 μg/ml
  MIC ATB combined with Example 15 @4 μgml: 2 mg/L
[2]; with Example 16 at 4 μg/ml
  MIC ATB combined with Example 16 @4 μg/ml: 2 mg/L
[3]; antibiotic alone
  MIC ATB alone: 8 mg/L
[3]; with Example 1 @8 μg/ml
  MIC ATB combined with Example 1 @8 μg/ml: <0.031 mg/L
[3]; with Example 1 at 8 μg/ml
  MIC ATB combined with Example 1 @8 μg/ml: <0.031 mg/L
[3]; with Example 7 at 8 μg/ml
  MIC ATB combined with Example 7 @8 μgml: >32 mg/L
[3]; with Example 9 @4 μg/ml
  MIC ATB combined with Example 9 @4 μg/ml: 8 mg/L
[3]; with Example 9 at 4 μg/ml
  MIC ATB combined with Example 9 @4 μg/ml: 16 mg/L
[3]; with Example 11 at 8 μg/ml
  MIC ATB combined with Example 11 @8 μg/ml: >32 mg/L
[3]; with Example 12 at 8 μg/ml
  MIC ATB combined with Example 12 @8 μg/ml: >32 mg/L
[3]; with Example 13 at 8 μg/ml
  MIC ATB combined with Example 13 @8 μg/ml: >32 mg/L
[3]; with Example 14 at 8 μg/ml
  MIC ATB combined with Example 14 @8 μg/ml: >32 mg/L
[3]; with Example 15 at 4 μg/ml
  MIC ATB combined with Example 15 @4 μgml: >32 mg/L
[3]; with Example 16 at 4 μg/ml
  MIC ATB combined with Example 16 @4 μg/ml: >32 mg/L
[4]; antibiotic alone
  MIC ATB alone: 2 mg/L
[4]; with Example 1 @8 μg/ml
  MIC ATB combined with Example 1 @8 μg/ml: <0.031 mg/L
[4]; with Example 1 at 8 μg/ml
  MIC ATB combined with Example 1 @8 μg/ml: <0.031 mg/L
[4]; with Example 7 at 8 μg/ml
  MIC ATB combined with Example 7 @8 μgml: 32 mg/L
[4]; with Example 9 @4 μg/ml
  MIC ATB combined with Example 9 @4 μg/ml: 1 mg/L
[4]; with Example 9 at 4 μg/ml
  MIC ATB combined with Example 9 @4 μg/ml: 1 mg/L
[4]; with Example 11 at 8 μg/ml
  MIC ATB combined with Example 11 @8 μg/ml: 1 mg/L
[4]; with Example 12 at 8 μg/ml
  MIC ATB combined with Example 12 @8 μg/ml: 2 mg/L
[4]; with Example 13 at 8 μg/ml
  MIC ATB combined with Example 13 @8 μg/ml: 16 mg/L
[4]; with Example 14 at 8 μg/ml
  MIC ATB combined with Example 14 @8 μg/ml: 2 mg/L
[4]; with Example 15 at 4 μg/ml
  MIC ATB combined with Example 15 @4 μgml: 2 mg/L
[4]; with Example 16 at 4 μg/ml
  MIC ATB combined with Example 16 @4 μg/ml: 4 mg/L
[5]; antibiotic alone
  MIC ATB alone: 0.016 mg/L
[5]; with Example 1 @8 μg/ml
  MIC ATB combined with Example 1 @8 μg/ml: <=0.031 μg/mL
[5]; with Example 1 at 8 μg/ml
  MIC ATB combined with Example 1 @8 μg/ml: <=0.031 μg/mL
[5]; with Example 7 at 8 μg/ml
  MIC ATB combined with Example 7 @8 μgml: 0.25 mg/L
[5]; with Example 9 @4 μg/ml
  MIC ATB combined with Example 9 @4 μg/ml: <0.031 mg/L
[5]; with Example 9 at 4 μg/ml
  MIC ATB combined with Example 9 @4 μg/ml: <0.031 mg/L
[5]; with Example 11 at 8 μg/ml
  MIC ATB combined with Example 11 @8 μg/ml: <0.031 mg/L
[5]; with Example 12 at 8 μg/ml
  MIC ATB combined with Example 12 @8 μg/ml: <0.031 mg/L
[5]; with Example 13 at 8 μg/ml
  MIC ATB combined with Example 13 @8 μg/ml: <=0.031 μg/mL
[5]; with Example 14 at 8 μg/ml
  MIC ATB combined with Example 14 @8 μg/ml: <0.031 mg/L
[5]; with Example 15 at 4 μg/ml
  MIC ATB combined with Example 15 @4 μgml: <0.031 mg/L
[5]; with Example 16 at 4 μg/ml
  MIC ATB combined with Example 16 @4 μg/ml: <0.031 mg/L
[6]; antibiotic alone
  MIC ATB alone: 0.063 mg/L
[6]; with Example 1 @8 μg/ml
  MIC ATB combined with Example 1 @8 μg/ml: <=0.031 μg/mL
[6]; with Example 1 at 8 μg/ml
  MIC ATB combined with Example 1 @8 μg/ml: <=0.031 μg/mL
[6]; with Example 7 at 8 μg/ml
  MIC ATB combined with Example 7 @8 μgml: <=0.031 μg/mL
[6]; with Example 9 @4 μg/ml
  MIC ATB combined with Example 9 @4 μg/ml: <0.031 mg/L
[6]; with Example 9 at 4 μg/ml
  MIC ATB combined with Example 9 @4 μg/ml: <0.031 mg/L
[6]; with Example 11 at 8 μg/ml
  MIC ATB combined with Example 11 @8 μg/ml: <=0.031 μg/mL
[6]; with Example 12 at 8 μg/ml
  MIC ATB combined with Example 12 @8 μg/ml: <0.031 mg/L
[6]; with Example 13 at 8 μg/ml
  MIC ATB combined with Example 13 @8 μg/ml: <=0.031 μg/mL
[6]; with Example 14 at 8 μg/ml
  MIC ATB combined with Example 14 @8 μg/ml: <0.031 mg/L
[6]; with Example 15 at 4 μg/ml
  MIC ATB combined with Example 15 @4 μgml: <0.031 mg/L
[6]; with Example 16 at 4 μg/ml
  MIC ATB combined with Example 16 @4 μg/ml: <0.031 mg/L

— patent publication US20200024278A1, “COMPOSITION COMPRISING ANTIBIOTIC COMPOUND AND AN HETEROCYCLIC COMPOUND AND THEIR USE IN PREVENTING OR TREATING BACTERIAL INFECTIONS” (MUTABILIS, priority 2016, published 2020)
